Assay results from PMC4969531, “Enhanced Absorption Study of Ginsenoside Compound K (20-O-β-(D-Glucopyranosyl)-20(S)-protopanaxadiol) after Oral Administration of Fermented Red Ginseng Extract (HYFRG™) in Healthy Korean Volunteers and Rats” (Evidence-based Complementary and Alternative Medicine : eCAM, 2016).

Legend:
[1] = Stability of compound K working stock solution in methanol; type: physicochemical; conditions: n = 3
Experimental: Stock solutions of compound K and IS were prepared separately by dissolving the accurately weighed compounds in methanol for a final concentration of 1000 μg/mL. The prepared stock solutions were stored in −80°C when not in use. Working solutions of compound K were prepared by serial dilution of the stock solution in methanol. Calibration standards were prepared by spiking 10 μL of the appropriate standard solutions to 190 μL of blank plasma for concentrations of 1, 5, 10, 50, 100, 500, and 1000 ng/mL. QC samples were prepared in the same manner as the calibration standards, for low, middle, and high concentrations of 3, 300, and 800 ng/mL. IS working solution (5 μg/mL) for routine use was freshly prepared by diluting IS stock solution in methanol. The standard and QC samples were extracted on each analysis run using the same procedure described below. […] The specificity of the method towards endogenous plasma matrix substances was assessed in double blank human plasma (without compound K and IS). […] Then, the chromatograms obtained from the sample spiked with compound K at lower limit of quantitation (LLOQ) and IS and actual plasma samples from a volunteer after oral administration of compound K were compared with those obtained from blank samples. The calibration curve was constructed by plotting the peak area ratios (y) of compound K to IS against the spiked concentrations (x) of compound K. Linearity was assessed by weighted (1/x) least squares regression analysis. […] It should be quantified with an acceptable bias within ±20% and a CV no greater than 20%. The LLOQ was determined as the concentrations with a signal to noise (S/N) ratio of 10. […] Precision is expressed as a coefficient of variance (CV) at each concentration. The accuracy of the assay was defined as a percentage of the measured concentration over the theoretical concentration. The acceptance criterion recommended by KFDA and USFDA for each back-calculated standard concentration is 20% deviation from the nominal for LLOQ and 15% for all others (KFDA 2013, USFDA 2013). […]

[2] = Stability of compound K in human plasma (bench-top, refrigerator, freezer, freeze-thaw, extracted samples); type: in vitro ADME; conditions: n = 3; for Stability of extracted, autosampler (4°C), 20 h: extracted plasma sample; for Compound K in plasma, 4°C, 17 h / Compound K in plasma, room temperature, 17 h / Compound K in plasma, −80°C, 17 h / Freeze-thaw stability, three cycles, −80°C: human plasma
Experimental: The LC-MS/MS method to determine compound K in human and rat plasma was validated and established in terms of specificity, sensitivity, linearity, accuracy, precision, recovery, matrix effect, and stability according to the bioanalytical method validation guidelines published by Korea Food and Drug Administration (KFDA) and USFDA [23, 24]. The specificity of the method towards endogenous plasma matrix substances was assessed in double blank human plasma (without compound K and IS). Double blank samples from six different lots of human blank plasma were tested for the presence of endogenous substances, which may interfere with compound K and IS using described above procedures and chromatographic/spectroscopic conditions. Then, the chromatograms obtained from the sample spiked with compound K at lower limit of quantitation (LLOQ) and IS and actual plasma samples from a volunteer after oral administration of compound K were compared with those obtained from blank samples. The calibration curve was constructed by plotting the peak area ratios (y) of compound K to IS against the spiked concentrations (x) of compound K. Linearity was assessed by weighted (1/x) least squares regression analysis. LLOQ was defined as the lowest concentration on the calibration curve. It should be quantified with an acceptable bias within ±20% and a CV no greater than 20%. The LLOQ was determined as the concentrations with a signal to noise (S/N) ratio of 10. The intra- and interday precision and accuracy assessments were performed on the same day (n = 5, at each concentration) and on three consecutive days at four concentrations ([…]). Precision is expressed as a coefficient of variance (CV) at each concentration. The accuracy of the assay was defined as a percentage of the measured concentration over the theoretical concentration. The acceptance criterion recommended by KFDA and USFDA for each back-calculated standard concentration is 20% deviation from the nominal for LLOQ and 15% for all others (KFDA 2013, USFDA 2013). The relative recovery, absolute matrix effect, and process efficiency were determined at three QC concentrations (3, 300, and 800 ng/mL, n = 3) of compound K and IS (500 ng/mL, n = 9). The relative recovery was measured by comparing the peak areas obtained from plasma samples spiked before extraction with those from plasma samples spiked after extraction. The absolute matrix effect was measured by comparing the peak response of plasma samples spiked after extraction with that of pure standards containing equivalent amounts of compound K and IS prepared in mobile phase. The process efficiency wasmeasured by comparing the peak response of plasma samples spiked before extraction with that of the pure standards containing equivalent amounts of compound K and IS prepared in mobile phase. […] The predicted concentrations of compound K at 3, 300, and 800 ng/mL samples differed by not more than 15% of the nominal concentrations in a set of stability tests, namely, in injector (20 h), bench-top (17 h), three repeated freeze-thaw cycles, and freezer stability at −80°C for 17 h. […] Although several analytical methods have been used to determine compound K concentrations in human plasma with LC-MS/MS using solid phase extraction or protein precipitation, we developed the fully validated analytical method optimized for our laboratory settings to meet both KFDA and USFDA guidelines for validating a bioanalytical method. Our analytical method was successfully used to evaluate the comparative pharmacokinetics of two red ginseng HYFRG or RG extracts in Koreans.

CC(C)=CCCC(C)(OC1OC(CO)C(O)C(O)C1O)C1CCC2(C)C1C(O)CC1C3(C)CCC(O)C(C)(C)C3CCC12C [Compound K, 20-O-β-(D-glucopyranosyl)-20(S)-protopanaxadiol]
Working stock solution stability, room temperature, 6 h ([1]; nominal 3 ng/mL): 89.08 ± 3.89%
Working stock solution stability, room temperature, 6 h ([1]; nominal 300 ng/mL): 89.11 ± 7.13%
Working stock solution stability, room temperature, 6 h ([1]; nominal 800 ng/mL): 96.13 ± 7.43%
Stability of extracted, autosampler (4°C), 20 h ([2]; nominal 3 ng/mL): 110.43 ± 12.89%
Compound K in plasma, 4°C, 17 h ([2]; nominal 3 ng/mL): 112.11 ± 5.08%
Compound K in plasma, room temperature, 17 h ([2]; nominal 3 ng/mL): 110.12 ± 3.01%
Compound K in plasma, −80°C, 17 h ([2]; nominal 3 ng/mL): 115.04 ± 2.66%
Freeze-thaw stability, three cycles, −80°C ([2]; nominal 3 ng/mL): 109.09 ± 7.07%
Stability of extracted, autosampler (4°C), 20 h ([2]; nominal 300 ng/mL): 102.96 ± 4.83%
Compound K in plasma, 4°C, 17 h ([2]; nominal 300 ng/mL): 110.62 ± 2.31%
Compound K in plasma, room temperature, 17 h ([2]; nominal 300 ng/mL): 106.83 ± 3.20%
Compound K in plasma, −80°C, 17 h ([2]; nominal 300 ng/mL): 108.30 ± 1.60%
Freeze-thaw stability, three cycles, −80°C ([2]; nominal 300 ng/mL): 109.70 ± 2.38%
Stability of extracted, autosampler (4°C), 20 h ([2]; nominal 800 ng/mL): 103.46 ± 3.48%
Compound K in plasma, 4°C, 17 h ([2]; nominal 800 ng/mL): 107.40 ± 2.45%
Compound K in plasma, room temperature, 17 h ([2]; nominal 800 ng/mL): 107.54 ± 0.20%
Compound K in plasma, −80°C, 17 h ([2]; nominal 800 ng/mL): 104.95 ± 1.42%
Freeze-thaw stability, three cycles, −80°C ([2]; nominal 800 ng/mL): 106.13 ± 5.46%
